The source of these data is patent US9943569B2, “Method for preventing or reducing postoperative pulmonary complications” (OSAKA UNIVERSITY, priority 2015, dated 2018).

Type in all cases: in vivo, human
Data set [1] can be described thus: Plasma ghrelin concentration (enzyme immunoassay), randomized placebo-controlled phase II study. The text has this: Forty patients with primary esophageal cancer who underwent esophagectomy were selected to participate in a randomized, placebo-controlled phase II study. The patients were selected based on the following eligibility criteria: (1) thoracic esophageal cancer treated by performing radical esophagectomy with gastric tube reconstruction; (2) age 20 to 75 years; (3) adequate functioning of major organs; (4) no other active malignancies; and (5) provision of written informed consent. The following exclusions criteria were used: (1) preoperative diagnosis of esophageal cancer invasion to the aorta or trachea and other organs; (2) patients with multiple cancer; (3) severe respiratory problems, such as emphysema; (4) patients with prior ischemic heart disease; (5) liver cirrhosis or active hepatitis; (6) renal failure requiring dialysis treatment; (7) poorly controlled diabetes mellitus or disease requiring insulin treatment; (8) consecutive use of steroids; and (9) mental disorder. The patients were randomly divided into a ghrelin group and a placebo group at a 1:1 ratio. The approach for thoracic manipulation (i.e., open or thoracoscopic surgery) was used as the only stratification factor. Group allocation was performed before the initiation of surgery. The study was performed in a double-blind manner, and an independent researcher assessed outcomes.
(§1) The primary endpoint of this study was SIRS duration. The secondary endpoints were postoperative complications, serum C-reactive protein (CRP) and IL-6 levels, time required to attain a positive nitrogen balance, and changes in body weight and body composition. Postoperative complications were defined as adverse events caused by surgery. Patients received an intravenous continuous infusion of ghrelin (0.5 μg/kg/h) or placebo (pure saline) for 5 days postoperatively. Ghrelin was diluted to a final volume of 48 mL with saline, and the solution was administered at a rate of 2 mL/h by using an infusion pump through a central venous catheter inserted into the right subclavian vein. The same amount of ghrelin was administered via intravenous infusion during the 5 days of treatment; the dose was calculated on the basis of body weight on the day before surgery. Patients in the placebo group received the corresponding infusion containing pure saline using same procedure.
(§2) Blood sampling was performed at the following 7 time points: before surgery; 2 hours after initiation of surgery (during thoracotomy); 4 hours after initiation of surgery (during laparotomy); and on PODs 1, 3, 7, and 10. Complete blood count was performed every day for at least 10 PODs. If the leukocyte count was not within the normal range on POD10, complete blood counts were performed daily until it was within the normal range for 3 consecutive days. SIRS was diagnosed according to the criteria proposed by the American College of Chest Physicians/Society of Critical Care Medicine Consensus Conference^32 and when 2 or more of the following criteria were present: (1) body temperature less than 36° C. or more than 38° C.; (2) heart rate more than 90 beats per minute; (3) tachypnea with more than 20 breaths per minute or an arterial partial pressure of carbon dioxide less than 32 mm Hg; and (4) white blood cell count less than 4000 cells/mm^3, >12,000 cells/mm^3, or an immature (band) form more than 10%. Postoperative complications were evaluated according to the Clavien-Dindo classification.^33 Grade I required no treatment, grade II required medical therapy, grade Ma required interventions but not general anesthesia, grade Mb required general anesthesia, grade IV represented life-threatening states that required intensive care, and grade V represented death.
Sampled blood was immediately transferred into a chilled glass tube containing disodium ethylenediaminetetraacetic acid for plasma sampling or a separating agent for serum sampling, and the samples were then centrifuged at 4° C. […]

For data set [2], the system named is patients undergoing esophagectomy. Nature of the data set: SIRS duration after esophagectomy, randomized placebo-controlled phase II study. The settings on record: ghrelin 0.5 μg/kg/h continuous i.v. infusion for 5 days, n=20. Here is the method: Forty patients undergoing esophagectomy were randomly assigned to either the ghrelin group (n=20), which received continuous infusion of ghrelin (0.5 μg/kg/h) for 5 days, or the placebo group (n=20), which received pure saline for 5 days. The primary endpoint was SIRS duration. The secondary endpoints were the incidence of postoperative complications, time of a negative nitrogen balance, changes in body weight and composition, and levels of inflammatory markers, including C-reactive protein (CRP) and interleukin-6 (IL-6).
Forty patients with primary esophageal cancer who underwent esophagectomy were selected to participate in a randomized, placebo-controlled phase II study. The patients were selected based on the following eligibility criteria: (1) thoracic esophageal cancer treated by performing radical esophagectomy with gastric tube reconstruction; (2) age 20 to 75 years; (3) adequate functioning of major organs; (4) no other active malignancies; and (5) provision of written informed consent. […] The study was performed in a double-blind manner, and an independent researcher assessed outcomes.
The primary endpoint of this study was SIRS duration. […] The same amount of ghrelin was administered via intravenous infusion during the 5 days of treatment; the dose was calculated on the basis of body weight on the day before surgery. […]

The subject of another data set is interleukin-6 (IL-6). Kind of data set: Postoperative change in serum IL-6 (enzyme immunoassay). The settings on record: n=20. Here is the method:
as §1, §2
Sampled blood was immediately transferred into a chilled glass tube containing disodium ethylenediaminetetraacetic acid for plasma sampling or a separating agent for serum sampling, and the samples were then centrifuged at 4° C. Plasma samples were mixed with a 10% volume of 1 N HCl and stored at −80° C. Serum samples were directly stored at −80° C. Sandwich-type enzyme immunoassay kits were used to measure levels of plasma active ghrelin, des-acyl ghrelin, and serum IL-6 according to the manufacturers' protocols (for ghrelin: Mitsubishi Kagaku Iatron, Inc, Tokyo, Japan; for IL-6: R&D Systems, Minneapolis, Minn.). Total plasma ghrelin levels were calculated as the active ghrelin level plus the des-acyl ghrelin level.^34 An Access 2 kit, a chemiluminescent enzyme immunoassay (Beckman Coulter, Inc, Brea, Calif.), was used to measure serum GH levels.

The subject of data set [3] is patients undergoing esophagectomy. Kind of data set: Changes in body weight and body composition (dual-energy X-ray absorptiometry). The note with it: preoperatively vs POD10. Here is the method: Dual-energy X-ray absorptiometry (Hologic QDR-2000; Hologic Inc, Waltham, Mass.) was used to assess total body composition, including lean body weight and fat body weight, of all participants.^35 These measurements were performed preoperatively and 10 days postoperatively with the subject in the supine position.
However, in the postoperative test, rapid turnover proteins used as nutritional markers, such as, transthyretin, transferrin, and retinol binding protein, were more highly retained in the ghrelin group than in the placebo group. This finding is consistent with the findings in previous studies that ghrelin prevented nutritional deterioration. […] We compared changes in weight and body composition between the 2 groups. During the study period, changes in body weight were monitored as a percentage of the weight on admission (preoperation).

The mark [4] stands for this setting: dual-energy X-ray absorptiometry.

Consider `CCCCCCCC(=O)OC[C@H](NC(=O)[C@H](CO)NC(=O)CN)C(=O)N[C@@H](Cc1ccccc1)C(=O)N[C@@H](CC(C)C)C(=O)N[C@@H](CO)C(=O)N1CCC[C@H]1C(=O)N[C@@H](CCC(=O)O)C(=O)N[C@@H](Cc1cnc[nH]1)C(=O)N[C@@H](CCC(N)=O)C(=O)N[C@@H](CCCNC(=N)N)C(=O)N[C@H](C(=O)N[C@@H](CCC(N)=O)C(=O)N[C@@H](CCC(N)=O)C(=O)N[C@@H](CCCNC(=N)N)C(=O)N[C@@H](CCCCN)C(=O)N[C@@H](CCC(=O)O)C(=O)N[C@@H](CO)C(=O)N[C@@H](CCCCN)C(=O)N[C@@H](CCCCN)C(=O)N1CCC[C@H]1C(=O)N1CCC[C@H]1C(=O)N[C@@H](C)C(=O)N[C@@H](CCCCN)C(=O)N[C@@H](CC(C)C)C(=O)N[C@@H](CCC(N)=O)C(=O)N1CCC[C@H]1C(=O)N[C@@H](CCCNC(=N)N)C(=O)O)C(C)C` [ghrelin], for which the Total ghrelin in data set [1] (Postoperative (POD7)) worked out at 60.2 ± 34.1 imol/mL; in data set [1] (Preoperative (baseline)), 106.6 ± 76.8 imol/mL. The level at time molar at 2 h in data set [1] (human, plasma, iv, 0.5 ug/kg/h, 2 hours after the start of injection, 0.5 μg/kg/h continuous i.v. infusion) was 0.743 ± 0.191 nM. The level at time molar at 4 h in data set [1] (human, plasma, iv, 0.5 ug/kg/h, 4 hours after the start of injection, 0.5 μg/kg/h continuous i.v. infusion) worked out at 0.711 ± 0.146 nM. Besides, in data set [1] (human, plasma, iv, 0.5 ug/kg/h, POD1, during infusion 0.5 μg/kg/h), the level at time molar at 1 postoperative day was found to be 0.749 ± 0.143 nM. Also, the level at time molar at 3 postoperative day in data set [1] (human, plasma, iv, 0.5 ug/kg/h, POD3, during infusion 0.5 μg/kg/h) worked out at 0.737 ± 0.199 nM. The level at time molar at 7 postoperative day in data set [1] (human, plasma, iv, 0.5 ug/kg/h, POD7, after administration of ghrelin) came out at 0.0602 ± 0.0341 nM. This molecule also displayed a level at time molar at 10 postoperative day in data set [1] (human, plasma, iv, 0.5 ug/kg/h, POD10, after administration of ghrelin) of 0.063 ± 0.031 nM. In data set [1] (human, plasma, iv, 0.5 ug/kg/h, before ghrelin administration (baseline), ghrelin group n=20), this molecule came in with a level at time molar of 0.107 ± 0.0768 nM. This molecule also showed an SIRS duration in data set [2] of 3.0 ± 2.9 days. In addition, the “Serum IL-6” value amounted to 95.2 ± 131.0 pg/mL in the data set with interleukin-6 (IL-6) (POD1); 43.1 ± 47.1 pg/mL in the data set with interleukin-6 (IL-6) (POD3); 43.1 ± 47.1 pg/mL with interleukin-6 (IL-6) (POD3, listed as Ghrelin); 15.3 ± 11.3 pg/mL in the data set on interleukin-6 (IL-6) (POD7); 14.2 ± 17.9 pg/mL with interleukin-6 (IL-6) (POD10); 4.3 ± 4.8 pg/mL in the data set on interleukin-6 (IL-6) (Preoperative (baseline)). In addition, the “percent decrease in total weight” value in data set [3] is reported as −3.5±2.7%. In data set [3] (setting [4]), the “percent decrease in body fat weight” value is −3.2±5.0%. The “percent decrease in lean body weight” value in data set [3] (setting [4]) was −4.2%±3.0.
